From patent publication US9295629B2, “WNT family-derived peptides and use thereof” (CAREGEN CO., LTD., priority 2011, dated 2016)
Where no end group is shown, it is not given here.

What was measured:
HaCaT keratinocytes = experiment: SRB colorimetric cell growth assay, keratinocytes; assay type: cell-based; settings: 72 hr; for growth of keratinocytes, microscope image: observed under a microscope (FIG. 3a); for effect on the growth of keratinocytes: peptide 1 ng/ml-10 μg/ml, SRB absorbance at 590 nm (FIG. 2a)
Protocol: (§1) In order to evaluate three peptides prepared in Preparation Examples 1-2 whether they have similar activities of growth factor, SRB (Sulforhodamine B; Sigma-Aldrich) colorimetric assay was carried out using HaCaT kerationcytes (Korean Cell Line Bank) and NIH3T3 fibroblasts (Korean Cell Line Bank) according to Rizzino et al. method (Rizzino, et al. Cancer Res., 48: 4266 (1988)).
(§2) HaCaT ketatinocytes, NIH3T3 fibroblasts, and HHFDPC hair follicle cells (cell science) were cultured in 250 ml-flasks containing DMEM (Dulbecco's Modified Eagle's minimal essential media; Gibco, USA) supplemented with 10% FBS (fetal bovine serum; Sigma). Cells cultured were treated with 1% trypsin solution to detach cells from the bottom of culture flasks and centrifuged to collect cell pellets. After cells were resuspended in DMEM not containing FBS, its aliquot (3×10^3 cells) was added to each well of 96-well plates and cultured under 5% CO2 for 24 hr at 37° C. After 24-hr culture, the medium was changed with a fresh medium without serum and cells were incubated with empty sample (for normalization) and peptides synthesized (1 ng/ml, 10 ng/ml, 100 ng/ml, 1 μg/ml and 10 μg/ml) aseptically dissolved in 10% DMSO for 72 hr under the same conditions as described above. After removing supernatants, cells were fixed with ethanol and then washed three times using PBS (phosphate buffered saline), followed by incubation with SRB solution. Cells were sufficiently washed with 1% acetic acid and observed under a microscope to find living cell condition. In addition, absorbance at 590 nm was measured to analyze cell viability. Meanwhile, after culturing under the same conditions, the tissue was immunostained by an immunohistochemical assay with ki-67 antibody (SantaCruz, USA) and the amount of ki-67 protein as a cell proliferation marker was observed.

NIH3T3 fibroblasts = experiment: SRB colorimetric cell growth assay, fibroblasts; assay type: cell-based; settings: for growth of fibroblasts, microscope image: NIH3T3, 72 hr, observed under a microscope (FIG. 3b); for effect on the growth of fibroblasts: NIH3T3, peptide 1 ng/ml-10 μg/ml, 72 hr, SRB absorbance at 590 nm (FIG. 2b)
Protocol: as §1, §2

[1] = tested on: HHFDPC hair follicle cells; experiment: SRB colorimetric cell growth assay, hair follicle cells; assay type: cell-based; settings: 72 hr; for growth of cells in hair follicles, microscope image: observed under a microscope (FIG. 3c); for effect on the growth of cells in hair follicles: peptide 1 ng/ml-10 μg/ml, SRB absorbance at 590 nm (FIG. 2c)
Protocol: as §2

LRP5 = experiment: Western blot of Phospho-LRP5 in HaCaT keratinocytes; assay type: cell-based; settings: peptide 5 hr, Western blot (FIG. 4)
Protocol: (§3) HaCaT kerationcytes cultured for 48 hr were incubated with the peptides synthesized in preparation Example 1 for 5 hr. The phosphorylation level of LRP5, which is the receptor of WNT protein and expression level of β-catenin, which is the signal molecule of WNT protein were examined respectively. The amount of Phopho-LRP5 and β-catenin were measured by Western blot analysis using an antibody against Phopho-LRP5 (Cell signaling) and β-catenin (SantaCruz, USA). In addition, the expression level of LEF-1 transcription factor was also observed, which is enhanced by β-catenin. […] First of all, it was shown that β-catenin activity is observed by treatment with the peptide of the present invention in spite of the presence of DKK-1 as a WNT inhibitor and a β-catenin signaling inhibitor (FIG. 5b). It was also observed that the expression level of LEF-1 transcription factor was increased by the treatment of the present peptides (FIG. 6).

β-catenin = experiment: Western blot of β-catenin in HaCaT keratinocytes; assay type: cell-based; settings: for expression level / activity of β-catenin: peptide 5 hr, Western blot (FIG. 5a); for β-catenin expression / activity in the presence of DKK-1: with DKK-1 (WNT inhibitor), Western blot (FIG. 5b)
Protocol: as §3

fibronectin = experiment: Fibronectin ELISA in NIH3T3 fibroblasts; assay type: cell-based; settings: for fibronectin expression with the lapse of time: NIH3T3, peptide 1 μg/ml, 3, 10, 24 or 48 hr, ELISA (FIG. 7a); for fibronectin expression in the presence of DKK-1: NIH3T3, treated with both DKK-1 protein and peptide, ELISA (FIG. 7b)
Protocol: To verify whether the peptides synthesized in preparation Example 1 enhances the expression of fibronectin as a WNT target protein, NIH3T3 fibroblasts (4×10^3 cells) was added to each well of 96-well plates and cultured under 5% CO2 for 24 hr at 37° C. After 24-hr culture, the medium was changed with a fresh medium without serum and cells were treated with empty sample (for normalization), three peptides synthesized (1 μg/ml) and peptide complex (1 μg/ml) aseptically dissolved in 10% DMSO for 3 hr, 10 hr, 24 hr or 48 hr under the same conditions as described above. After 72 hr incubation, the cell culture was collected and the expression level of fibronectin was measured using Fibronectin ELISA kit (R&D systems, USA).
In addition, after DKK-1 protein was treated and cultured under the same conditions, the expression level of fibronectin was examined.

C57BL/6 mouse back skin = experiment: Mouse hair growth, topical peptide nanosome; assay type: in vivo; settings: nanosome topically twice every day for 15 days (FIG. 8)
Protocol: The peptide synthesized in Preparation Example 1 was formulated into nanosome. Afterwards, the back of C57BL/6 mouse was partially removed and then the skin was topically administered with the nanosome twice every day for 15 days.
50 mg of each peptide synthesized in preparation Examples was dissolved in 500 ml of distilled water by sufficient agitation. The peptide solution was mixed with 5 g lecithin, 0.3 ml sodium oleate, 50 ml ethanol and a small amount of oils, and its volume was adjusted with distilled water to 1 L. The resulting solution was subjected to a microfluidizer under high pressure for emulsification, thereby providing nanosomes having about 100-nm size. The nanosomes were prepared to have a final concentration of about 50 ppm and used as ingredients for cosmetics.

Substance	growth of keratinocytes, microscope image (HaCaT keratinocytes)	effect on the growth of keratinocytes (HaCaT keratinocytes)	growth of fibroblasts, microscope image (NIH3T3 fibroblasts)	effect on the growth of fibroblasts (NIH3T3 fibroblasts)	growth of cells in hair follicles, microscope image [1]	effect on the growth of cells in hair follicles [1]	phosphorylation level of LRP5 (LRP5)	expression level / activity of β-catenin (β-catenin)	β-catenin expression / activity in the presence of DKK-1 (β-catenin)	fibronectin expression with the lapse of time (fibronectin)	fibronectin expression in the presence of DKK-1 (fibronectin)	hair growth on mouse back skin (C57BL/6 mouse back skin)
peptide-3: WNT-derived peptide, amino acid sequence AERRRELCRC (WNT-derived peptide 3)	promote the growth	stimulatory effect	promote the growth	stimulatory effect	promote the growth	stimulatory effect	enhancement	enhancement	β-catenin expression in spite of the presence of DKK-1	gradually elevated	restored and enhanced	activity for promoting hair growth
LCCGRGHRTRTQR (cysteine pairing not given here) [peptide-1]	promote the growth	stimulatory effect	promote the growth	stimulatory effect	promote the growth	stimulatory effect	enhancement	enhancement	β-catenin expression in spite of the presence of DKK-1	gradually elevated	restored and enhanced	activity for promoting hair growth
peptide-2: WNT-derived peptide, amino acid sequence LCCGRGHNAR (WNT-derived peptide 2)	promote the growth	stimulatory effect	promote the growth	stimulatory effect	promote the growth	stimulatory effect	enhancement	enhancement	β-catenin expression in spite of the presence of DKK-1	gradually elevated	restored and enhanced	activity for promoting hair growth
peptide-4: WNT-derived peptide, amino acid sequence LCCGRGHNVL (WNT-derived peptide 4)	promote the growth	stimulatory effect	promote the growth	stimulatory effect	promote the growth	stimulatory effect	enhancement	enhancement	β-catenin expression in spite of the presence of DKK-1	gradually elevated	restored and enhanced	activity for promoting hair growth
